For one series, the system named is P. multocida 46572. The experiment in a line: In vivo mouse lung infection challenge model (murine efficacy model). The conditions noted are these: for % Survival: 20 mg/kg subcutaneous, CD-1 mice, intranasal challenge, to Day 10, approximate (~%), harmonized relative to vehicle and M9.
The test system of the next series is TNF-α. The experiment in a line: Bovine whole blood assay, LPS-induced TNF-α. It counts as cell-based. Conditions: LPS 1 μg/mL. The method, then: (§1) (protected from light) for 30 minutes.
A further series concerns IL-1β. Kind of series: Bovine whole blood assay, IL-1β. It counts as cell-based. The conditions noted are these: drug concentration giving overstimulation of IL-1β over LPS (cellular toxicity signal). The method, then: as §1

`CC[C@H]1OC(=O)[C@H](C)[C@@H](O[C@H]2C[C@@](C)(OC)[C@](O)(CN3CCOCC3)[C@H](C)O2)[C@H](C)[C@@H](O[C@@H]2O[C@H](C)C[C@H]3[C@H]2OC(=Nc2ccc(OC)cc2)N3C)[C@](C)(O)C[C@@H](C)CN[C@H](C)[C@@H](O)[C@]1(C)O` (mixture of isomers) [Example B-4, (E/Z)-(2R,3S,4R,5R,8R,10R,11R,12S,13S,14R)-2-ethyl-3,4,10-trihydroxy-13-(((2R,4R,5S,6S)-5-hydroxy-4-methoxy-4,6-dimethyl-5-(morpholinomethyl)tetrahydro-2H-pyran-2-yl)oxy)-11-(((3aR,4S,6R,7aS)-2-((4-methoxyphenyl)imino)-1,6-dimethylhexahydro-2H-pyrano[4,3-d]oxazol-4-yl)oxy)-3,5,8,10,12,14-hexamethyl-1-oxa-6-azacyclopentadecan-15-one]: the “% Survival” value with P. multocida 46572 is listed as 37%. In the series with P. multocida 46572 (P. multocida infection in mice), the “clinical efficacy, in words” value was “clinically efficacious”. The same molecule registered a 50% inhibitory concentration (IC50) in the series with TNF-α of less than 5 µM. Also, the “IL-Iβ OS of LPS” value with IL-1β was determined as 13 µM.
With `CCNC[C@]1(O)[C@H](C)O[C@@H](O[C@H]2[C@H](C)[C@@H](O[C@@H]3O[C@H](C)C[C@H]4[C@H]3OC(=Nc3ccc(OC)cc3)N4C)[C@](C)(O)C[C@@H](C)CN[C@H](C)[C@@H](O)[C@](C)(O)[C@@H](CC)OC(=O)[C@@H]2C)C[C@@]1(C)OC` (mixture of isomers) [Example A-12, (E/Z)-(2R,3S,4R,5R,8R,10R,11R,12S,13S,14R)-2-ethyl-13-(((2R,4R,5S,6S)-5-((ethylamino)methyl)-5-hydroxy-4-methoxy-4,6-dimethyltetrahydro-2H-pyran-2-yl)oxy)-3,4,10-trihydroxy-11-(((3aR,4S,6R,7aS)-2-((4-methoxyphenyl)imino)-1,6-dimethylhexahydro-2H-pyrano[4,3-d]oxazol-4-yl)oxy)-3,5,8,10,12,14-hexamethyl-1-oxa-6-azacyclopentadecan-15-one], the IC50 in the series on TNF-α was 15 µM. Besides, the “IL-Iβ OS of LPS” value in the series with IL-1β came to 32 µM.
For the molecule `CCCNC[C@]1(O)[C@H](C)O[C@@H](O[C@H]2[C@H](C)[C@@H](O[C@@H]3O[C@H](C)C[C@H]4[C@H]3OC(=Nc3ccccc3)N4C)[C@](C)(O)C[C@@H](C)CN[C@H](C)[C@@H](O)[C@](C)(O)[C@@H](CC)OC(=O)[C@@H]2C)C[C@@]1(C)OC` (mixture of isomers) [Example A-6, (E/Z)-(2R,3S,4R,5R,8R,10R,11R,12S,13S,14R)-11-(((3aR,4S,6R,7aS)-1,6-dimethyl-2-(phenylimino)hexahydro-2H-pyrano[4,3-d]oxazol-4-yl)oxy)-2-ethyl-3,4,10-trihydroxy-13-(((2R,4R,5S,6S)-5-hydroxy-4-methoxy-4,6-dimethyl-5-((propylamino)methyl)tetrahydro-2H-pyran-2-yl)oxy)-3,5,8,10,12,14-hexamethyl-1-oxa-6-azacyclopentadecan-15-one], the “% Survival” value in the series on P. multocida 46572 was determined as 54%. For the same molecule, the IC50 in the series with TNF-α was less than 5 µM. Besides, the “IL-Iβ OS of LPS” value in the series on IL-1β turned out to be 13 µM.
In the series on TNF-α, `CCNC[C@]1(O)[C@H](C)O[C@@H](O[C@H]2[C@H](C)[C@@H](O[C@@H]3O[C@H](C)C[C@H]4[C@H]3OC(=Nc3ccccc3)N4C)[C@](C)(O)C[C@@H](C)CN[C@H](C)[C@@H](O)[C@](C)(O)[C@@H](CC)OC(=O)[C@@H]2C)C[C@@]1(C)OC` (mixture of isomers) [Example A-3, (E/Z)-(2R,3S,4R,5R,8R,10R,11R,12S,13S,14R)-11-(((3aR,4S,6R,7aS)-1,6-dimethyl-2-(phenylimino)hexahydro-2H-pyrano[4,3-d]oxazol-4-yl)oxy)-2-ethyl-13-(((2R,4R,5S,6S)-5-((ethylamino)methyl)-5-hydroxy-4-methoxy-4,6-dimethyltetrahydro-2H-pyran-2-yl)oxy)-3,4,10-trihydroxy-3,5,8,10,12,14-hexamethyl-1-oxa-6-azacyclopentadecan-15-one] showed an IC50 of 20 µM. The “IL-Iβ OS of LPS” value with IL-1β stood at 5 µM.
In turn, `CCCNC[C@]1(O)[C@H](C)O[C@@H](O[C@H]2[C@H](C)[C@@H](O[C@@H]3O[C@H](C)C[C@H]4[C@H]3OC(=Nc3ccccc3)N4C)[C@](C)(O)C[C@@H](C)CN(CCC)[C@H](C)[C@@H](O)[C@](C)(O)[C@@H](CC)OC(=O)[C@@H]2C)C[C@@]1(C)OC` (mixture of isomers) [Example A-34, (E/Z)-(2R,3S,4R,5R,8R,10R,11R,12S,13S,14R)-11-(((3aR,4S,6R,7aS)-1,6-dimethyl-2-(phenylimino)hexahydro-2H-pyrano[4,3-d]oxazol-4-yl)oxy)-2-ethyl-3,4,10-trihydroxy-13-(((2R,4R,5S,6S)-5-hydroxy-4-methoxy-4,6-dimethyl-5-((propylamino)methyl)tetrahydro-2H-pyran-2-yl)oxy)-3,5,8,10,12,14-hexamethyl-6-propyl-1-oxa-6-azacyclopentadecan-15-one] had an IC50 with TNF-α of 7 µM. Further, the “IL-Iβ OS of LPS” value in the series with IL-1β is 6 µM.
Regarding `CCCNC[C@]1(O)[C@H](C)O[C@@H](O[C@H]2[C@H](C)[C@@H](O[C@@H]3O[C@H](C)C[C@H]4[C@H]3OC(=Nc3ccc(OC)cc3)N4C)[C@](C)(O)C[C@@H](C)CN(C)[C@H](C)[C@@H](O)[C@](C)(O)[C@@H](CC)OC(=O)[C@@H]2C)C[C@@]1(C)OC` (mixture of isomers) [Example A-30, (E/Z)-(2R,3S,4R,5R,8R,10R,11R,12S,13S,14R)-2-ethyl-3,4,10-trihydroxy-13-(((2R,4R,5S,6S)-5-hydroxy-4-methoxy-4,6-dimethyl-5-((propylamino)methyl)tetrahydro-2H-pyran-2-yl)oxy)-11-(((3aR,4S,6R,7aS)-2-((4-methoxyphenyl)imino)-1,6-dimethylhexahydro-2H-pyrano[4,3-d]oxazol-4-yl)oxy)-3,5,6,8,10,12,14-heptamethyl-1-oxa-6-azacyclopentadecan-15-one], the half-inhibitory concentration (IC50) in the series with TNF-α was found to be 10 µM. For the same molecule, the “IL-Iβ OS of LPS” value with IL-1β came out at 16 µM.
In the series on TNF-α, `CC[C@H]1OC(=O)[C@H](C)[C@@H](O[C@H]2C[C@@](C)(OC)[C@](O)(CN3CCN(CC)CC3)[C@H](C)O2)[C@H](C)[C@@H](O[C@@H]2O[C@H](C)C[C@H]3[C@H]2OC(=Nc2ccccc2)N3C)[C@](C)(O)C[C@@H](C)CN[C@H](C)[C@@H](O)[C@]1(C)O` (mixture of isomers) [Example B-2, (E/Z)-(2R,3S,4R,5R,8R,10R,11R,12S,13S,14R)-11-(((3aR,4S,6R,7aS)-1,6-dimethyl-2-(phenylimino)hexahydro-2H-pyrano[4,3-d]oxazol-4-yl)oxy)-2-ethyl-13-(((2R,4R,5S,6S)-5-((4-ethylpiperazin-1-yl)methyl)-5-hydroxy-4-methoxy-4,6-dimethyltetrahydro-2H-pyran-2-yl)oxy)-3,4,10-trihydroxy-3,5,8,10,12,14-hexamethyl-1-oxa-6-azacyclopentadecan-15-one] displayed an IC50 of 6 µM. For the same molecule, in the series with IL-1β, the “IL-Iβ OS of LPS” value turned out to be 13 µM.

A word on the IC50: it is the concentration that gives 50% inhibition. The low end stands for higher potency, the high end for lower potency.
